In patent US6184246A, “Inhibition of cytokine production by polymethoxylated flavones” (priority 1999, dated 2001):
Read-outs that look alike come from different tables or passages of the source.

Legend:
human monocytes = test: Cytotoxicity by LDH content of monocyte lysates
Protocol: (§1) To measure the impact of the flavones on cytokine production, PBMCs were resuspended to 4×10^6 /mL in complete medium, i.e., Dulbecco's Modified Eagle Medium containing 30% FCS, 2 mM glutamine, 100 U/mL Penicillin-G, and 100 μg/mL streptomycin. […] Nonadherent cells (lymphocytes) were separated from the plastic adherent cells (monocytes) by washing the wells twice with 200 μL of medium. The monocytes were cultured an additional 30 min in 100 μL of complete medium containing graded concentrations of the compound of interest and the cultures were then adjusted to contain […] LPS to stimulate cytokine production. Culture supernatants were harvested 14 h later, and cells were lysed by addition of 50 μL of Dulbecco's phosphate buffered saline containing 1% NP40. Culture supernatants were evaluated for TNFα, IL-1β, IL-6, IL-8, IL-10, and MIP-1α content using specific enzyme-linked immunosorbent assays (ELISA) purchased from R&D Systems. IL-1β was measured in cell lysates by ELISA. Lactate dehydrogenase (LDH) content of cell lysates was measured to determine compound effects on cell viability: To 50 μL of lysate were added 200 μL of 50 mM sodium pyrophosphate buffer (pH 8.9) containing 50 mM lactic acid and 4 mg/mL β-nicotinamide adenine dinucleotide (Sigma); rates of reduction of nicotinamide adenine dinucleotide were measured at room temperature at 340 nm.

TNFα = TNFα production by LPS-stimulated human monocytes (ELISA); type: cell-based; conditions: for inhibition of TNFα production (in words): LPS-stimulated human monocytes
Protocol: Isolation of human peripheral blood monocytes: Peripheral blood mononuclear cells (PBMCs) were isolated from residual source leukocytes (Bonfils Blood Center, CO) by density gradient centrifugation using Ficoll-Paque Plus (Pharmacia, Sweden).
as §1

[1] = human monocytes, LDH content of cell lysates

SMILES	cytotoxicity towards cultured human monocytes (depletion of cellular LDH activity) (human monocytes)	inhibition of TNFα production (in words) (TNFα)	cytotoxicity towards cultured human monocytes (depletion of cellular LDH activity) (human monocytes; [1])	IC50 (TNFα; Monocyte, human monocytes, 30 min preculture with compound, LPS, 14 h, 30% FCS, read-out: IC50 for inhibition of TNFα production)
O=c1c(O)c(-c2ccc(O)cc2)oc2cc(O)ccc12 [3,4,7-trihydroxyflavone]	lacked activity and any associated cytotoxicity	lacked activity		
O=c1c(O)c(-c2ccccc2)oc2ccccc12 [3-hydroxyflavone]	lacked activity and any associated cytotoxicity	lacked activity		
O=c1cc(-c2ccc(O)cc2)oc2ccc(O)c(O)c12 [4,5,6-trihydroxyflavone]	lacked activity and any associated cytotoxicity	lacked activity		
O=c1cc(-c2ccccc2)oc2cc(O)ccc12 [7-hydroxyflavone]		lacked activity	lacked activity and any associated cytotoxicity	
O=c1cc(-c2ccccc2)oc2cc(O)c(O)c(O)c12 [baicalein]	lacked activity and any associated cytotoxicity	lacked activity		
Oc1cc(O)c2c(c1)OC(c1ccc(O)c(O)c1)C(O)C2 (stereo not shown) [catechin]		lacked activity	lacked activity and any associated cytotoxicity	
O=c1cc(-c2ccccc2)oc2cc(O)cc(O)c12 [chrysin]		lacked activity	lacked activity and any associated cytotoxicity	
COc1ccc(-c2cc(=O)c3c(O)cc(O[C@@H]4O[C@H](CO[C@@H]5O[C@@H](C)[C@H](O)[C@@H](O)[C@H]5O)[C@@H](O)[C@H](O)[C@H]4O)cc3o2)cc1O [diosmin]			no cytotoxicity	> 200 µM
Oc1cc(O)c2c(c1)O[C@H](c1ccc(O)c(O)c1)[C@H](O)C2 [epicatechin]	lacked activity and any associated cytotoxicity	lacked activity		
O=C1C[C@@H](c2ccc(O)c(O)c2)Oc2cc(O)cc(O)c21 [eriodictyol]	lacked activity and any associated cytotoxicity	lacked activity		
O=c1c(O)c(-c2ccc(O)c(O)c2)oc2cc(O)ccc12 [fisetin]		lacked activity	lacked activity and any associated cytotoxicity	
O=C1CC(c2ccccc2)Oc2ccccc21 (stereo not shown) [flavanone]		lacked activity	lacked activity and any associated cytotoxicity	
O=c1c(O)c(-c2ccccc2)oc2cc(O)cc(O)c12 [galagin]		lacked activity	lacked activity and any associated cytotoxicity	
O=c1c(O)c(-c2ccc(O)c(O)c2)oc2c(O)c(O)cc(O)c12 [gossypetin]		lacked activity	lacked activity and any associated cytotoxicity	
COc1ccc([C@@H]2CC(=O)c3c(O)cc(O)cc3O2)cc1O [hesperetin]	lacked activity and any associated cytotoxicity	lacked activity		
COc1ccc(-c2cc(=O)c3c(OC)c(OC)c(OC)cc3o2)cc1 [tetra-O-methylscutellarein]			exception	
